PMC9535023, “Inhibition of phospholipase D1 induces immunogenic cell death and potentiates cancer immunotherapy in colorectal cancer” (Experimental & Molecular Medicine, 2022)
Where two headings read alike, the source gives them in different places.

How the values were obtained:
[1] = biological target: T1, PLD2 (Mus musculus, UniProt P97813); experiment: PLD2 activity in Pld1−/− MEFs; type: cell-based
T1 construct: endogenous in cells; host or cells: immortalized Pld1-/- mouse embryonic fibroblasts
Procedure: Cells were labeled with [H^3] myristic acid, and PLD activity was assessed by measuring the formation of [H^3] phosphatidylbutanol, which is the product of PLD-mediated transphosphatidylation, in the presence of 1-butanol, as previously described.
We further investigated the effect of A3373 on the enzymatic inhibition of PLD1 and PLD2 in Pld^+/+, Pld1^−/−, and Pld2^−/− MEFs. […] Kinase profiling was used to evaluate the general selectivity of the lead compounds. […] To further investigate whether inhibition of PLD1 by A3373 occurs by binding to PLD1, we first modified A3373 by adding biotinylation instead of the F present in its structure and measured PLD activity.

[2] = test system: DLD1 cells; experiment: Cell viability (MTT); type: cell-based
Procedure: Cell viability was measured by MTT (3-(4,5-dimethylthiazol2-yl)-2,5-diphenyltetrazolium bromide, Sigma-Aldrich). Cells (5 × 10^3 cells/well) were seeded in a 96-well plate. […] After treatment, the cells were incubated with 0.5 mg/mL MTT in the media for 2 h and lysed with DMSO. Absorbance was measured at 570 nm using a VersaMax ELISA microplate reader (Molecular Devices).

[3] = In vivo pharmacokinetics; parameters: species or system mouse; AUCinf: unit not given here; details: for half-life: read-out: t1/2 (terminal half-life) (converted)
Procedure: Supplementary Table 4. Plasma pharmacokinetics of A3373
The pharmacokinetic parameters were estimated with non-compartmental analysis using
PKSolver, based on the concentration- time profiles of A3373 in the plasma samples following
single IV (5 mg/kg) and PO (10 mg/kg) dose in mice (n=3). Abbreviations: T1 /2, elimination
half life; Tmax, time to peak concentration; AUC, area under the concentration–time curve;
MRT, mean residence ti me; Vz, the volume in the terminal state; CL, clearance; Vss, steady-
state volume of distribution; F, absolute bioavailability. […]
Male ICR mice (8 weeks old, 30~35 g) were accli mated to the testing facility in a temperature
and humidity controlled condition for approximately a week prior to the study. 1 mg/mL of
A3373 solution in dimethylacetamide/tween 80/saline (10/10/80 vol%) was dosed orally (10
mg/kg in a volume of 10 mL/kg) or by tail vein injection (5 mg/kg in a volume of 5 mL/kg) to
the animals. About 40 μL of blood samples were collected in BD Microtainer plasma s eparator
tubes at selected times through the saphenous vein over 24 hour s post-dosing. Blood samples
were centrifuged at 6,000 x g for 5 minutes to separat e plasma and stored in a freezer until
analyzed. Protein precipitation was conduct ed on 15 μL aliquot of plas ma samples with 3
volumes of acetonitrile containing glipizide as analytical internal standard. After centrifugation,
the supernatant was analyzed by Agilent 6460 QQQ LC-MS/MS system in a negative MRM
mode. Briefly, chromatography was performed on a Phenomenex Kinetex C18 column (2.1 ×
50 mm, 2.6 μm) with a linear gradient of the mobil e phases 10 mM aqu eous ammonium acetate
and acetonitrile. […]

[4] = test system: DLD1 cells; experiment: In vitro phagocytosis assay, DLD1 cells with THP1 macrophages; type: cell-based; details: CFSE-labeled CRC cells cocultured with PMA-activated THP1 macrophages, vs vehicle
[5] = test system: HCT116 cells; experiment: miR-4496 promoter and β-catenin 3′-UTR luciferase reporters; type: cell-based
[6] = test system: HEK293 cells; experiment: TCF transactivation in HEK293 cells; type: cell-based; details: Wnt3a 150 ng/mL
[7] = test system: DLD1 cells; experiment: Flow cytometry of CD44 and CD133; type: cell-based; details: dose-dependent, mean fluorescence intensity
[8] = test system: MC38 cells; experiment: MC38 syngeneic tumor model; type: in vivo, mouse
Procedure: manner. The incision was extended to 2–3 cm, and the cecum was exposed. 2 × 10^5 MC38-GFP-Luciferas e cells were suspended in 50 µL PBS and injected into the cecum. Seven days after cell injection, 10 mg/kg A3373 was orally administered to the mice daily for 4 weeks.
A colon can cer syngenei c model was established using 6- weeks-old C57B L/6 male mice. 2 × 10^5 MC38 cells were suspended in 50µ l PBS and subcutaneously injected into the flanks of the mice. After 7 days of cell injection, mice were randomized into four groups and all groups were treated as follows for 2 weeks: vehicle grou p, mice were IP administered vehicle every day; A3373 group, mice were IP administrated with 10 mg/kg A3373 every day; α PD-L1 antibody group, mice were IP administrated with 5 mg/kg anti-mouse PD-L1 (BioXcell) eve ry two days; A3373 + αPD-L1 antibody group, mice received A3373 (10 mg/kg) daily with anti - mouse PD-L1 (5 mg/kg) every 2 days. Tumor volume was measured in MC38 cells subcutaneous injected mice every 2 days after 7 days of cell injection. External tumor measurements were made using precision calipers, and tumor volume (TV) was calcul ated according to the following formula: TV = (W × L2)/2 (W = width and L = l ength).
. All animal procedu res were performed in accordance with the institutional guidelines for animal research and were approved by the Institutional Animal Care and Use Committee of Yonsei University (IACUC- […]
In a colon cancer orthotropic model, tumor-infiltrating lymphocytes (TILs) were isolated from the tumor tissue 30 days after cell injection. […]
After 20 minutes of incubation, 0.1 M EDTA was added to prevent clumping. Cells were filtered through a 40 µm nylon mesh, single-cell suspensions were counted and used for the experiments. […] Isolated tumor cells were cultured for one passage to change the immunocompromised phenotype and assessed using flow cytometry. […]

[9] = male, ICR, mouse, plasma, IV 5 mg/kg, mice
[10] = male, ICR, mouse, plasma, PO 10 mg/kg, mice

T1 sequence (P97813 whole entry): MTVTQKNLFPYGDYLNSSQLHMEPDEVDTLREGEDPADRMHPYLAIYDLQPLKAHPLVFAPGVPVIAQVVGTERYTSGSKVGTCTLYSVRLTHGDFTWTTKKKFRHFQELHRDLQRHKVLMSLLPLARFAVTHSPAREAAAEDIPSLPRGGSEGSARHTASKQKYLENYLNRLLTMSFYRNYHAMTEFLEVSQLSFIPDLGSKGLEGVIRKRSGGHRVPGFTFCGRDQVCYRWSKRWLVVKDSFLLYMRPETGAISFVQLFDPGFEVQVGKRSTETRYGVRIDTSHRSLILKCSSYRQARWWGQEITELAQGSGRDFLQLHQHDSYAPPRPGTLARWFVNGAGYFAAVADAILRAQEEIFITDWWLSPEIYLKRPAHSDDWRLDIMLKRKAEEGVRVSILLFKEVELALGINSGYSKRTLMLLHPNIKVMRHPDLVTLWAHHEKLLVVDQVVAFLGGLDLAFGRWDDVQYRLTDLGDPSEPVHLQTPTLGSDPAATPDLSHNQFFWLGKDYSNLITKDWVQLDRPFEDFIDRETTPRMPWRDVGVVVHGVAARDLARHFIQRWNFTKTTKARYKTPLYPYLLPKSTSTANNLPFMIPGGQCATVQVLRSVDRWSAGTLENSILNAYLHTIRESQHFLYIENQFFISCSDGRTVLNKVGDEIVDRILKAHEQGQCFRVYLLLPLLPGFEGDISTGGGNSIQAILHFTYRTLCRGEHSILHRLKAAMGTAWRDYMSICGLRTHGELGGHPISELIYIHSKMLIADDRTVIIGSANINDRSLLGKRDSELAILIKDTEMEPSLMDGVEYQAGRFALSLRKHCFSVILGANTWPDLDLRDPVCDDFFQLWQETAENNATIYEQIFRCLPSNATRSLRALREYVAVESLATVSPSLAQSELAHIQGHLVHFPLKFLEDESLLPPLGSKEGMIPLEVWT

In the case of `O=C(Nc1cc(C(F)(F)F)cc(C(F)(F)F)c1)c1cc2cc(F)ccc2[nH]1` [Compound A3373], the “PLD2 activity, in words” value ([1]; 2 μM, Pld−/− MEFs) is reported as “not PLD2 activity”, the IC50 ([1]; Pld1−/− MEFs) is reported as 15.1 µM and the “potency in suppressing viability, comparison” value ([2]; DLD1 cells) is reported as “higher potency in suppressing viability than that of VU0155069”. The “viability of DLD1 cells, in words” value ([2]; dose- and time-dependent) was “significantly inhibited the viability”, the “t1/2 (terminal half-life)” value ([3]; IV 5 mg/kg, mice, 5 mg/kg) was 3.2 h and the AUCinf ([3]; PO 10 mg/kg, male ICR mice) was 13,647.5 ± 1506.9. It also gave a Tmax ([3]; PO 10 mg/kg, male ICR mice) of 0.5 h, a Vd ([3]; male, ICR, mouse, plasma, iv, 5 mg/kg, IV 5 mg/kg, mice, read-out: Vss (steady state volume)) of 2.1 ± 0.1 L/kg and a Vd ([3]; male, ICR, mouse, plasma, iv, 5 mg/kg, IV 5 mg/kg, mice, read-out: Vz) of 3.7 L/kg. It also gave a half-life ([3]; male, ICR, mouse, plasma, iv, 5 mg/kg, IV 5 mg/kg, mice) of roughly 3.2 h, a half-life ([3]; male, ICR, mouse, plasma, po, 10 mg/kg, PO 10 mg/kg, mice) of 3.8 h and an AUC(0-inf) [3, 9] of 6320 ng·h/mL. It also gave an AUC(0-t) [3, 9] of 6300 ng·h/mL, an MRT [3, 9] of 2.6 h and a clearance ([3]; male, ICR, mouse, plasma, IV 5 mg/kg, mice, read-out: CL (clearance) (converted)) of 13.3 mL/min/kg. It also gave a bioavailability ([3]; male, ICR, mouse, plasma, PO 10 mg/kg vs IV 5 mg/kg, mice, read-out: F (oral bioavailability)) of 108%, an AUC(0-inf) [3, 10] of 13600 ng·h/mL and an AUC(0-t) [3, 10] of 13500 ng·h/mL. It also gave an MRT [3, 10] of 5.6 h, a Tmax ([3]; male, ICR, mouse, plasma, PO 10 mg/kg, mice, read-out: tmax) of 0.5 h and a Cmax ([3]; mouse, plasma, PO 10 mg/kg, male ICR mice) of 2630 ± 183 ng/mL. For the same compound, the “population of CD11b+CFSE+ macrophages, in words” value [4] was “significantly increased the population of CD11b^+CFSE^+ macrophages”, the “luciferase activity of the β-catenin 3′-UTR reporter” value [5] was “significantly suppressed the luciferase activity” and the “promoter activity of miR-4496” value [5] was “increased the promoter activity of miR-4496”. For the same compound, the “Wnt3a- and β-catenin-induced TCF transactivation” value [6] was “significantly decreased Wnt3a- and β-catenin-induced TCF transactivation”, the “expression of CD44 and CD133” value [7] was “significantly decreased the expression of CD44 and CD133” and the tumor formation ([8]; A3373 10 mg/kg and/or αPD-L1) was “significantly decreased tumor formation”. The “CD8+ T-cell-mediated killing of MC38-GFP-Luc cells, luciferase activity” value ([8]; CD8+ T cells from treated tumor-bearing mice, increasing E/T ratio) was “significant reduction in luciferase activity” and the “percentage of immune cells (CD45+ cells) in total cells” value ([8]; tumors at maximum volume, flow cytometry, vehicle ~20%) was roughly 50%.
